Series [1] deals with T1, C-C chemokine receptor type 2 (Homo sapiens, UniProt P41597). The series is described as follows: Displacement of [125]hMCP1 from human CCR2 receptor expressed in human monocytes at 1 uM. The series is classed as cell-based.
Target sequence in this assay (P41597 whole entry, looked up): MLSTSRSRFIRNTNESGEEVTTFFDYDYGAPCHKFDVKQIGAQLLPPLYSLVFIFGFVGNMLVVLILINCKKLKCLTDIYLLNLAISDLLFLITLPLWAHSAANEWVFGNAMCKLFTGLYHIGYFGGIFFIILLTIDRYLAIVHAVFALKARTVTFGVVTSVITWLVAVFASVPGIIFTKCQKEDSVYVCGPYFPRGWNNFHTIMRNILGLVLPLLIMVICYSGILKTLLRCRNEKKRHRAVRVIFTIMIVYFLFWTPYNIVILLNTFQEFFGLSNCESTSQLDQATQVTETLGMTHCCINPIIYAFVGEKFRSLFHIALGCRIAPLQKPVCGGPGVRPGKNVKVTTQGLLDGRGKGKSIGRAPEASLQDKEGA
Series [2] in a line: Oral bioavailability in rat. The format is ADME, organism-based. As to conditions: in vivo.
The nature of series [3]: Half life in rat. The format is ADME, organism-based. The settings on record: in vivo.
For series [4], the target named is C-C chemokine receptor type 2 (Mus musculus, UniProt P51683). The series is described as follows: (§1) Displacement of [125]hMCP1 from mouse CCR2 receptor expressed in CHO cells. The format is cell-based.
Series [5] has as its target C-C chemokine receptor type 5 (Homo sapiens, UniProt P51681). The series is described as follows: Displacement of MIP1alpha from CCR5 receptor.
Series [6] is described as follows: Volume of distribution in rat. The series is classed as ADME, organism-based. The settings on record: in vivo, read-out: Vss.
A short description of series [7]: Plasma clearance in rat. The series is classed as ADME, organism-based.
The target of series [8] is T1, C-C chemokine receptor type 2. As to the kind of experiment: Displacement of [125]hMCP1 from human CCR2 receptor expressed in human monocytes. The format is cell-based.
The target of series [9] is C-C chemokine receptor type 2 (Mus musculus) (UniProt P51683). Described as §1. The format is cell-based.
Series [10] has the same target. As to the kind of experiment: Displacement of [125]hMCP1 from mouse CCR2 receptor expressed in CHO cells at 1 uM. The format is cell-based.
The target of series [11] is T1, C-C chemokine receptor type 2. The series is described as follows: Antagonist activity against human CCR2 receptor assessed as inhibition of MCP1-induced calcium flux in human monocytes. The format is functional, cell-based. In general terms: Calcium assays in cells follow changes in intracellular calcium, usually with a dye or a luminescent sensor.
Target sequence in this assay (P41597 whole entry): as the sequence (P41597 whole entry, looked up) above

Active and inactive are the calls of the source. The calls are words filed in the database; no cut-off is given here. Bounds are passed on as bounds.

Chain of C-C chemokine receptor type 2 (Mus musculus) (P51683 whole entry, looked up): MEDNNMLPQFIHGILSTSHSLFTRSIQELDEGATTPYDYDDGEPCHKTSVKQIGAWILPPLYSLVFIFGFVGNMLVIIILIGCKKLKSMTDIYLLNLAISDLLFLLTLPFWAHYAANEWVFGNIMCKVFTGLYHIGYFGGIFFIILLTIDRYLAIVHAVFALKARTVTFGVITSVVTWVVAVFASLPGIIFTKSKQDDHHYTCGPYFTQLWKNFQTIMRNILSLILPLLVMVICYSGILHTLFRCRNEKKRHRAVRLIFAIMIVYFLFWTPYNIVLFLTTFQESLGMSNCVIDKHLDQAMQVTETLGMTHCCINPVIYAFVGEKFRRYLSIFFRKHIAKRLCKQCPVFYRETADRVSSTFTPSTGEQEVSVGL
Chain of C-C chemokine receptor type 2 (Mus musculus, UniProt P51683) (P51683 whole entry): as the sequence (P51683 whole entry, looked up) above
Chain of C-C chemokine receptor type 5 (P51681 whole entry): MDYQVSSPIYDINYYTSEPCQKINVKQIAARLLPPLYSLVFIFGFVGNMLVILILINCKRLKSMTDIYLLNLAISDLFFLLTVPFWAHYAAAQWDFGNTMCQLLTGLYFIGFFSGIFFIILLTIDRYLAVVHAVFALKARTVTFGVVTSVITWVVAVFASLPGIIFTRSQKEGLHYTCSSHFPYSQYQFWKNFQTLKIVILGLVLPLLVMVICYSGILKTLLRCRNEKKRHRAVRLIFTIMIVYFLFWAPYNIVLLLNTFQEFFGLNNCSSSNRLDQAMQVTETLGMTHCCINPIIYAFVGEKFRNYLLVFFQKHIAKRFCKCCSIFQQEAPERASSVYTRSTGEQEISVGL

In series [1], `O=C(NCc1cc(C(F)(F)F)cc(C(F)(F)F)c1)C1CCCC(N2CCC(c3ccccc3)CC2)C1` (centres undefined) came in with an Activity of 23%. In the case of `C[C@H]1CN([C@@H]2CC[C@](C)(C(=O)NCc3cc(C(F)(F)F)cc(C(F)(F)F)c3)C2)CC[C@@]12C=Cc1ccccc12`, the bioavailability in series [2] is 15%. The molecule also showed a half-life in [3] of 8.1 h. In addition, the IC50 came to 130 nM in [4], 630 nM in series [5] and 1.3 nM in [8]. The Vd in series [6] stood at 6 L/kg. Besides, the clearance in series [7] is 50 mL/min/kg. For `CC1C[C@@H](N2CC[C@@]3(C=Cc4ccccc43)[C@@H](C)C2)C[C@H]1C(=O)NCc1cc(C(F)(F)F)cc(C(F)(F)F)c1` (some centres undefined), in [9], the result was inactive. Also, in series [8], the IC50 was > 1000 nM. Consider `O=C1C(CCN2CCC(c3ccccc3)CC2)CCN1Cc1cc(C(F)(F)F)cc(C(F)(F)F)c1` (centres undefined), for which, in [8], the outcome was inactive. The molecule `O=C(NCc1cc(C(F)(F)F)cc(C(F)(F)F)c1)[C@H]1CC[C@H](N2CCC(c3ccccc3)CC2)C1` returned an Activity in series [1] of 44%. On to `C[C@]1(C(=O)NCc2cc(C(F)(F)F)cc(C(F)(F)F)c2)CC[C@@H](N2CCC3(C=Cc4ccccc43)CC2)C1`, for which the Activity in series [10] is 27%. For the same molecule, in series [8], the IC50 is 47 nM. `O=C(NCc1cc(C(F)(F)F)cc(C(F)(F)F)c1)[C@H]1CC[C@@H](N2CCC(c3ccccc3)CC2)C1` showed an IC50 in [8] of 36 nM. Regarding `O=C(NCc1cc(C(F)(F)F)cc(C(F)(F)F)c1)[C@@H]1CC[C@H](N2CCC(c3ccccc3)CC2)C1`, in series [1], the Activity was determined as 30%. The same measure, in the same setting: in the case of `O=C(NCc1cc(C(F)(F)F)cc(C(F)(F)F)c1)[C@@H]1CC[C@@H](N2CCC(c3ccccc3)CC2)C1` it was 25%. `O=C(NCc1cc(C(F)(F)F)cc(C(F)(F)F)c1)C1CCC(N2CCC(c3ccccc3)CC2)C1` (centres undefined) showed an IC50 in [8] of 65 nM. As to `O=C(NCc1cc(C(F)(F)F)cc(C(F)(F)F)c1)[C@H]1CC[C@@H](N2CCC3(C=Cc4ccccc43)CC2)C1`, the result in series [9] was inactive. The same molecule showed an IC50 in [8] of 7.5 nM. As to `O=C1C(CCN2CCC(c3ccccc3)CC2)CCCN1Cc1cc(C(F)(F)F)cc(C(F)(F)F)c1` (centres undefined), the outcome in [8] was inactive. Regarding `C[C@H]1CN([C@@H]2CC[C@H](C(=O)NCc3cc(C(F)(F)F)cc(C(F)(F)F)c3)C2)CC[C@@]12C=Cc1ccccc12`, the Activity in [10] came to 27%. The figures for the IC50 in [11] and in series [8] were 2.3 nM and 1.4 nM, respectively.

As a reminder, the bioavailability is dose-corrected exposure relative to a reference, in per cent. A high value points to good availability. Broadly, the half-life is the time in which the quantity being followed falls by half. For orientation: IC50 means the concentration at which inhibition is half-maximal. What is called clearance is a measure of how efficiently the substance is removed, as volume per time. Low values mean inefficient removal, high ones efficient removal.

Values taken from ChEMBL document CHEMBL1143063, “Discovery of 3-piperidinyl-1-cyclopentanecarboxamide as a novel scaffold for highly potent CC chemokine receptor 2 antagonists” (J Med Chem, 2007).
